Source: PubChem BioAssay AID602217 (Sanford-Burnham Center for Chemical Genomics, 2012)
Activity calls are given as the source filed them.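 Rule for the calls: active = IC50 at or below a set limit; inactive = the rest.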

Tested on: HL-1 cardiomyocytes, 2-deoxyglucose injury, ATPLite luminescence, 2 h
Experiment: 2-DG-induced HL-1 ATP loss suppression – cell-based, ATPLite luminescence, dose response (AID 602217);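 note: cells kept in glucose-free DMEM during the 2-deoxyglucose injury; potency of protection where actives preserve ATP signal against 2-deoxyglucose stress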

SMILES | IC50
Cc1cccc(NC(=O)c2nc[nH]c2C(=O)NCCCCNC(=O)c2[nH]cnc2C(=O)Nc2cccc(C)c2)c1 | > 79 µM (inactive)
CC(=O)c1ccc(-c2cnc3c(NC=O)cc(-c4ccc(C(=O)NC5CC5)cc4)cn23)cc1 | 20 µM (inactive)
COc1ccc(Nc2nc(C(=O)N3CCc4cc(OC)c(OC)cc4C3)cs2)cc1 | 42 µM (inactive)
CCOC(=O)C(Cc1ccc(NC(=O)/C(=C/c2ccc(OC(C)=O)cc2)NC(C)=O)cc1)N1C(=O)c2ccccc2C1=O (configuration not stated) | 52.5 µM (inactive)
O=C(NCC(=O)N(Cc1ccccc1)C(C(=O)NC1CCCCC1)c1ccco1)c1ccco1 (configuration not stated) | > 79 µM (inactive)
CC(=O)Nc1cccc(-c2cc(NC=O)c3ncc(-c4ccc(C(C)=O)cc4)n3c2)c1 | 23.1 µM (inactive)
COc1cc(-c2cc(C(=O)Nc3cccc(C(C)=O)c3)c3ccccc3n2)cc(OC)c1OC | 9.9 µM
O=[N+]([O-])c1ccc(Nc2nc(N/N=C/c3cccc(F)c3)nc(N3CCCC3)n2)cc1 | > 79 µM (inactive)
COc1ccc(-c2cc(C(=O)N(C)Cc3nc4ccccc4c(=O)[nH]3)c3ccccc3n2)cc1OC | 21.9 µM (inactive)
C[C@H](NC(=O)c1nc[nH]c1C(=O)NCC(=O)OCc1ccccc1)c1ccccc1 | > 79 µM (inactive)
NC(=O)c1nsc(C(=O)N(c2ccccc2F)C(C(=O)NCc2ccccc2)c2ccc(O)cc2)c1N (configuration not stated) | 11 µM
CC(C)(C)OC(=O)N1CCC(NC(=O)c2nc[nH]c2C(=O)NCC(=O)OCc2ccccc2)CC1 | 25.8 µM (inactive)
COc1ccc(-c2nn(-c3ccccc3)cc2C(=O)Nc2nccs2)cc1 | 53.5 µM (inactive)
CC(=O)c1cccc(-c2cnc3c(NC=O)cc(-c4ccccc4F)cn23)c1 | > 79 µM (inactive)
CCOc1ccccc1NC(=O)c1oc2ccccc2c1NC(=O)C1CCCO1 (configuration not stated) | > 79 µM (inactive)
c1ccc(-c2nc(-n3ccnc3)nc(-n3ccnc3)n2)cc1 | 38 µM (inactive)
COc1cc(OC)cc(C(=O)Nc2ccc(C(=O)Nc3ccccc3OC)cc2)c1 | > 79 µM (inactive)
CCn1nc(C(=O)Nc2nc(-c3ccccn3)cs2)c2ccccc2c1=O | 13 µM
N#C/C(=C\Nc1ccc2c(c1)OCCO2)c1nc2ccccc2[nH]1 | > 79 µM (inactive)
Cc1cc(C)c(C)c(S(=O)(=O)N2CCN(C(=O)c3cc(=O)[nH]c4ccccc34)CC2)c1C | 23.7 µM (inactive)
COc1ccc(-c2cc(C(=O)N(C)Cc3ccc(OC)c(OC)c3OC)c3ccccc3n2)cc1OC | 32.1 µM (inactive)

SMILES | IC50
COC(=O)c1[nH]c2ccccc2c1NC(=O)CNC1CCCCC1 | 41 µM (inactive)
Cn1c(=O)c2[nH]c(NN=Cc3cccc(Br)c3)nc2n(C)c1=O | 17.9 µM
COc1cc(-c2cc(NC=O)c3ncc(-c4ccc(C(C)=O)cc4)n3c2)cc(OC)c1OC | > 79 µM (inactive)
COc1cc2[nH]c(=O)n3nc(-c4ccccc4)nc3c2cc1OC | 35.3 µM (inactive)
CC(C)=NNc1cnnc2ccc([N+](=O)[O-])cc12 | > 79 µM (inactive)
COc1ccc(-c2cc3nc(-c4ccccc4)cc(N4CCN(C(C)=O)CC4)n3n2)cc1 | 43.7 µM (inactive)
COc1ccc(Nc2nnc(SCc3cc(=O)n4ccsc4n3)s2)cc1 | 0.26 µM
Cc1ccccc1N(C(=O)c1snc(C(N)=O)c1N)C(C(=O)NCc1ccccc1)c1ccc(O)cc1 (configuration not stated) | > 79 µM (inactive)
CCOc1ccc(C(C(=O)NCC2CCCO2)N(C(=O)c2snc(C(N)=O)c2N)c2ccccc2F)cc1 (configuration not stated) | 44.3 µM (inactive)
CCCn1nc(C(=O)Nc2nc(-c3ccccn3)cs2)c2ccccc2c1=O | > 79 µM (inactive)
COc1cccc(CN(C)C(=O)C(Cc2ccccc2)NC(=O)c2ccccc2)c1OC (configuration not stated) | > 79 µM (inactive)
COc1cc(C(=O)Nc2nc(-c3cccs3)cs2)cc(OC)c1OC | 16.9 µM
COc1cccc(Nc2nc(-c3sc(NC(=O)c4ccco4)nc3C)cs2)c1 | 26.4 µM (inactive)
CCOC(=O)c1ccc(NC(=O)c2nc[nH]c2C(=O)NCCCCCNC(=O)OC(C)(C)C)cc1 | > 79 µM (inactive)
O=C(Nc1cccc(NC(=O)c2ccc([N+](=O)[O-])o2)c1)c1ccco1 | > 79 µM (inactive)
CC(=O)c1cccc(Nc2nc3ccccc3n3cnnc23)c1 | > 79 µM (inactive)
NC(=O)c1nsc(C(=O)N(c2ccccc2)C(C(=O)NCc2ccc(F)cc2)c2ccc(O)cc2)c1N (configuration not stated) | 19.8 µM
Cc1[nH]c2ccccc2c1/C=N/NC(=O)c1cc(-c2ccccc2)n[nH]1 | 22.8 µM (inactive)
COc1cc(-c2cc(C(=O)Nc3ccccc3N3CCOCC3)c3ccccc3n2)cc(OC)c1OC | 13.1 µM
O=C(Nc1ccccc1)c1nc[nH]c1C(=O)NCCCCNC(=O)c1[nH]cnc1C(=O)Nc1ccccc1 | 6.36 µM
CCOc1cc(/C=C/c2ccc3cccc([N+](=O)[O-])c3n2)ccc1OCC(=O)N(C)C | 40.3 µM (inactive)

SMILES | IC50
C[C@@H]1CN([C@@H](C)CO)C(=O)c2cc(NC(=O)Nc3ccccc3)ccc2O[C@H]1CN(C)C(=O)Nc1cccc2ccccc12 | > 79 µM (inactive)
COC(=O)c1cc2ccccn2c2c(C(=O)OC)c(C(=O)OC)cc1-2 | > 79 µM (inactive)
O=C(C(=O)N(Cc1ccccc1)Cc1ccccc1)c1c(-c2ccccc2)[nH]c2ccccc12 | 4.8 µM
CC(=O)Nc1cccc(-c2cc(NC(C)=O)c3ncc(-c4ccccc4)n3c2)c1 | 30.9 µM (inactive)
Cc1[nH]c2ccccc2c1/C=N/NC(=O)c1cc(-c2cccs2)[nH]n1 | > 79 µM (inactive)
CCOC(=O)C1CCN(c2cc3c(cc2NC(=O)c2ccccc2)n(C)c(=O)n3C)CC1 | > 79 µM (inactive)
O=C(COC(=O)c1ccccc1C(=O)OCC(=O)NCCc1c[nH]c2ccccc12)NCCc1c[nH]c2ccccc12 | > 79 µM (inactive)
Cc1ccc(C(C(=O)NCc2ccccc2)N(Cc2ccco2)C(=O)c2snc(C(N)=O)c2N)o1 (configuration not stated) | 23.9 µM (inactive)
COc1cc(/C=N/NC(=O)NC23CC4CC(CC(C4)C2)C3)ccc1OCC(N)=O | > 79 µM (inactive)
C=CC[C@@H](CC(=O)NCCO)C(=O)NC[C@H](OC(=O)[C@@H](CC=C)Cc1ccc(F)cc1)c1ccccc1 | 42.7 µM (inactive)
COC(=O)c1ccc(N)c(N=CC2=C(O)CC(C)(C)CC2=O)c1 | > 79 µM (inactive)
CC(=O)Nc1ccc(Nc2nc(-c3sc(NC(C)=O)nc3C)cs2)cc1 | 43.6 µM (inactive)
Cc1ccc(-c2csc(N3CCC[C@@H]3C(=O)NCCn3c(-c4ccncc4)nc4ccccc43)n2)cc1 | > 79 µM (inactive)
NC(=O)c1nsc(C(=O)N(Cc2ccco2)C(C(=O)NCc2ccccc2)c2ccc(O)cc2)c1N (configuration not stated) | 32.2 µM (inactive)
Cc1ccc(NC(=O)c2nc[nH]c2C(=O)NCCCNC(=O)c2[nH]cnc2C(=O)Nc2ccc(C)cc2)cc1 | > 79 µM (inactive)
CC(=O)Nc1ccc(S(=O)(=O)N(Cc2cccnc2)Cc2cc3ccccc3[nH]c2=O)cc1 | 30.8 µM (inactive)
COc1ccc(-c2cc(-c3nnc(COC(=O)C4CC4)o3)c3ccccc3n2)cc1OC | 62.9 µM (inactive)
O=S(=O)(c1ccccc1)N1CCN(c2nc(-c3cccnc3)nc3ccccc23)CC1 | 51.6 µM (inactive)
COc1ccc(-c2cc(C(=O)Nc3ccccc3N3CCOCC3)c3ccccc3n2)cc1OC | > 79 µM (inactive)
CC(=O)Nc1ccc(C(=O)N/N=C/c2ccccc2OC(=O)c2ccc(Cl)cc2)cc1 | > 79 µM (inactive)
